Assay results as given in PMC6950057, “Toxicity, Pharmacokinetics, and Gut Microbiome of Oral Administration of Sesterterpene MHO7 Derived from a Marine Fungus” (Marine Drugs, 2019).
Read-outs that look alike come from different tables or passages of the source.

Experiments:
[1] = tested on: breast cancer cells (MCF-7); parameters: method as in PMID 31175940; settings: mechanism of down regulating estrogen receptor alpha (ERα); cited from earlier work
[2] = Log D by shaking flask method (n-octanol/phosphate buffer); type: physicochemical; settings: 37 °C
Method: (§1) An HPLC system (Shimadzu, Japan) was equipped with a LC-20AD binary pump system, a SIL-20AD auto sampler, a CBM-20A system controller, and a CTO-20A oven. Separation of MHO7 and IS from endogenous substances was carried out on an Agilent Zorbax XDB C18 column (5 μm, 250 × 4.6 mm, Agilent, Pal Alto, CA, USA), which was kept at 30 °C. The mobile phase was composed of 30% phase A (water) and 70% phase B (acetonitrile) with a flow rate of 1 mL·min^−1. The inject volume of the sample solution was 10 μL.
(§2) The phases of distilled water and n-octanol were saturated with each other by shaking for 48 h with 250 rpm in a shaking water bath prior to use. Solutions of MHO7 was prepared in concentration of 10 mM·L^−1 in n-octanol. Accurately measured amounts of the two solvents with necessary quantity of MHO7 were placed in a 5.0 mL centrifuge tube; then, the mixture was carried out at 250 rpm and designated temperature in the shaking water bath for 48 h to afford complete phase separation. The samples of both phases were collected at 0, 4, 8, 12, 24, 30, 36 and 48 h, diluted with methanol (1:1, V) and determined by HPLC with the detection wavelength of 234 nm. Each set of solvent systems for experimental logP/D value was the mean of the three determinations.

[3] = Log P by shaking flask method (n-octanol/water); type: physicochemical
Method: as §1, §2

[4] = Stability in simulated gastric fluid (SGF); type: in vitro ADME; settings: for percentage concentration remaining in SGF: at 8 h
Method: (§3) SGF was prepared with modifications according to Lee et al. (2012) by mixing 100 mL of distilled water with a pH value set to 2.0 with hydrochloric acid and 1 g pepsin solution (800–2000 U/mg of protein). SIF was produced according to USP specifications (Test Solutions, United States Pharmacopeia 35, NF 30, 2012). Monobasic potassium phosphate (0.68 g) was dissolved in 25 mL of water. Then, 7.7 mL of 0.2 M NaOH was added to adjust the pH to 6.8. To this, 1 g of pancreatin was added and shaken gently until dissolved and the volume adjusted to 100 mL with water. Pancreatin was added after adjusting the pH of the solution to 6.8 to avoid precipitation of the enzyme.
(§4) Aliquots (199 µL) of SGF and SIF were placed in 1.5 mL microcentrifuge tubes and incubated at 37 °C for 10 min in a water bath, respectively. Different concentrations of MHO7 (1 µL) were added to each of the above microcentrifuge tubes to start the reaction with being incubated at 37 °C at 250 rpm in a shaking water bath. The reaction was stopped by adding ice ACN (800 µL) to each tube at intervals of 0, 0.5, 1, 2, 4, 6, and 8 h. The samples were vortexed for 15 min and centrifuged at 4 °C and 15,000 rpm for 15 min. After centrifuging the supernatant layer was taken directly for LC-MS analysis. Each experiment was carried out in triplicate, and average values were plotted. QC samples were prepared in the same way of inactivating pepsin in SGF incubation system at the concentrations of 1, 0.1 and 0.01 μM·L^−1 for HQC, MQC and LQC, respectively.

[5] = Stability in simulated intestinal fluid (SIF); type: in vitro ADME; settings: for percentage concentration remaining in SIF: at 8 h
Method: as §3, §4

[6] = pH 7, 37 °C, octanol/ddH2O, read-out: Log P/D Value O/W (pH 7.0)
[7] = MHO7 added at 0.05 mM·L^−1, 37 °C
[8] = initial addition 0.5 mM·L^−1, 37 °C
[9] = under the concentration of 5 mM·L^−1

CC(C)=C/C=C/[C@H](C)[C@H]1CC[C@]2(C)C[C@@H]3C(C)=CC(=O)[C@H]3/C(C=O)=C\C[C@@H]12 [MHO7, 6-epi-ophiobolin G]
antitumor activity [1]: potent antitumor activity
logD at 4 h ([2]; octanol/PBS pH 1.5, 4 h, read-out: Log P/D Value O/P (pH 1.5)): 1.29 ± 0.02
logD at 8 h ([2]; octanol/PBS pH 1.5, 8 h, read-out: Log P/D Value O/P (pH 1.5)): 1.22 ± 0.04
logD at 12 h ([2]; octanol/PBS pH 1.5, 12 h, read-out: Log P/D Value O/P (pH 1.5)): 1.13 ± 0.03
logD at 24 h ([2]; octanol/PBS pH 1.5, 24 h, read-out: Log P/D Value O/P (pH 1.5)): 1.13 ± 0.02
logD at 30 h ([2]; octanol/PBS pH 1.5, 30 h, read-out: Log P/D Value O/P (pH 1.5)): 1.12 ± 0.15
logD at 36 h ([2]; octanol/PBS pH 1.5, 36 h, read-out: Log P/D Value O/P (pH 1.5)): 1.12 ± 0.03
logD at 48 h ([2]; octanol/PBS pH 1.5, 48 h, read-out: Log P/D Value O/P (pH 1.5)): 1.12 ± 0.03
logD at 4 h ([2]; octanol/PBS pH 5.0, 4 h, read-out: Log P/D Value O/P (pH 5.0)): 1.15 ± 0.02
logD at 8 h ([2]; octanol/PBS pH 5.0, 8 h, read-out: Log P/D Value O/P (pH 5.0)): 1.03 ± 0.05
logD at 12 h ([2]; octanol/PBS pH 5.0, 12 h, read-out: Log P/D Value O/P (pH 5.0)): 0.95 ± 0.03
logD at 24 h ([2]; octanol/PBS pH 5.0, 24 h, read-out: Log P/D Value O/P (pH 5.0)): 0.95 ± 0.04
logD at 30 h ([2]; octanol/PBS pH 5.0, 30 h, read-out: Log P/D Value O/P (pH 5.0)): 0.95 ± 0.03
logD at 36 h ([2]; octanol/PBS pH 5.0, 36 h, read-out: Log P/D Value O/P (pH 5.0)): 0.93 ± 0.03
logD at 48 h ([2]; octanol/PBS pH 5.0, 48 h, read-out: Log P/D Value O/P (pH 5.0)): 0.93 ± 0.02
logD at 4 h ([2]; octanol/PBS pH 7.4, 4 h, read-out: Log P/D Value O/P (pH 7.4)): 1.39 ± 0.03
logD at 8 h ([2]; octanol/PBS pH 7.4, 8 h, read-out: Log P/D Value O/P (pH 7.4)): 1.37 ± 0.05
logD at 12 h ([2]; octanol/PBS pH 7.4, 12 h, read-out: Log P/D Value O/P (pH 7.4)): 1.31 ± 0.03
logD at 24 h ([2]; octanol/PBS pH 7.4, 24 h, read-out: Log P/D Value O/P (pH 7.4)): 1.29 ± 0.02
logD at 30 h ([2]; octanol/PBS pH 7.4, 30 h, read-out: Log P/D Value O/P (pH 7.4)): 1.27 ± 0.04
logD at 36 h ([2]; octanol/PBS pH 7.4, 36 h, read-out: Log P/D Value O/P (pH 7.4)): 1.26 ± 0.05
logD at 48 h ([2]; octanol/PBS pH 7.4, 48 h, read-out: Log P/D Value O/P (pH 7.4)): 1.26 ± 0.01
logP at 4 h ([3]; 25 °C, read-out: Log P Value): 1.23 ± 0.02
logP at 8 h ([3]; 25 °C, read-out: Log P Value): 1.22 ± 0.04
logP at 12 h ([3]; 25 °C, read-out: Log P Value): 1.23 ± 0.03
logP at 24 h ([3]; 25 °C, read-out: Log P Value): 1.23 ± 0.02
logP at 30 h ([3]; 25 °C, read-out: Log P Value): 1.27 ± 0.15
logP at 36 h ([3]; 25 °C, read-out: Log P Value): 1.27 ± 0.03
logP at 48 h ([3]; 25 °C, read-out: Log P Value): 1.29 ± 0.05
logP at 4 h [3, 6]: 2.55 ± 0.01
logP at 8 h [3, 6]: 2.51 ± 0.04
logP at 12 h [3, 6]: 2.48 ± 0.02
logP at 24 h [3, 6]: 2.49 ± 0.02
logP at 30 h [3, 6]: 2.47 ± 0.01
logP at 36 h [3, 6]: 2.49 ± 0.03
logP at 48 h [3, 6]: 2.48 ± 0.03
percentage concentration remaining in SGF [4, 7]: 76.19 ± 0.99%
percentage concentration remaining in SGF [4, 8]: 80.2 ± 3.15%
stability in SGF [4, 9]: stable
percentage concentration remaining in SIF [5, 7]: 94.83 ± 1.14%
percentage concentration remaining in SIF [5, 8]: 89.74 ± 0.86%
stability in SIF [5, 9]: stable
